According to US7169762B2, “Substance having physiological property, method for producing the same and uses thereof” (Amino Up Chemical Co., Ltd., priority 2001, dated 2007):

Key:
TNF-α and IFN-γ = test: cytokine concentrations in supernatant of LPS-stimulated macrophage (PEC) culture after oral administration to mice; assay type: in vivo, mouse; details: 1 g/kg oral for 1 week, C57/BL6 mice; PEC macrophages + LPS 100 ng/ml, 4 hours
Protocol: (§1) The physiological activity assays were performed by forcibly administering 1 g/kg of a sample to 6-week age male C57/BL6 mice for 1 week by oral route. Spleen cells and peritoneal exudate cells (PEC) were collected after sacrificing the animals. They were cultivated and assayed TNF-α, IFN-γ, and IL-2.
PEC (peritoneal exudate cells) collected from mouse abdominal cavity with physiological saline were centrifuged, (1,000 rpm, 10 minutes) to collect cells, which were used as macrophages. To the macrophages LPS (lipopoly saccharide) was added at a final concentration of 100 ng/ml and the cells were cultivated. After 4 hours, TNF-α, IFN-γ, and IL-2 in the culture supernatant were assayed.
(§2) For both a) and b) above, a kit for assaying cytokine (Wako Pure Chemical Industries, Ltd.) was used.

TNF-α, IFN-γ and IL-2 = test: cytokine concentrations in supernatant of ConA-stimulated spleen cell culture after oral administration to mice; assay type: in vivo, mouse; details: 1 g/kg oral for 1 week, C57/BL6 mice, IL-2 in culture supernatant (FIGS. 1 to 3)
Protocol: as §1
The collected mouse spleen was homogenized in DMEM medium and the homogenate was centrifuged at 4° C. (1,000 rpm, 5 minutes) To this was added ASK lysis buffer and the mixture was incubated (37° C., 3 minutes) in order to remove erythrocytes, followed by centrifugation (1,000 rpm, 5 minutes). To the spleen cells thus collected was added ConA at a final concentration of 10 μg/ml and cultivated in a microplate. After 15 hours, the culture supernatant was collected for assaying TNF-α, IFN-γ, and IL-2.
as §2

CC(=O)c1occc1OC1OC(CO)C(O)C(O)C1O [substance A, 2-acetyl-3-hydroxyfuran 3-O-α-D-glucopyranoside]
cytokine induction ability, macrophage (TNF-α and IFN-γ): high cytokine induction ability | cytokine induction ability (TNF-α, IFN-γ and IL-2): considerable cytokine induction ability
